Laboratory results published in US5599793A, “Antithromobotic agents” (Eli Lilly and Company, priority 1995, dated 1997).

What was measured:
Human Thrombin = Human Thrombin (Homo sapiens, UniProt P00734); assay: Inhibition of amidase activity of thrombin (Kass); assay type: biochemical; conditions: apparent association constant, mean over a range of concentrations
Experimental: (§1) The assay is carried out by mixing 50 μL buffer (0.03M Tris, 0.15M NaCl, pH 7.4) with 25 μL of bovine thrombin or human thrombin solution (0.21 mg/mL of thrombostat bovine thrombin, Parke-Davis, or purified human thrombin, Enzyme Research Laboratories, South Bend, Ind., at about 8 NIH units/mL, in the same buffer) and 25 μL of test compound in a solvent (in 50% aqueous methanol, v:v). The 150 μL of an aqueous solution of the chromogenic substrate (at 0.25 mg/mL) are added and the rates of hydrolysis of the substrate are measured by monitoring the reactions at 405 nm for the release of p-nitroaniline. Standard curves are constructed by plotting free thrombin concentration against hydrolysis rate. The hydrolysis rates observed with test compounds are then converted to "free thrombin" values in the respective assays by use of the standard curves. The bound thrombin (bound to test compound) is calculated by subtracting the amount of free thrombin observed in each assay from the known initial amount of thrombin used in the assay. The amount of free inhibitor in each assay is calculated by subtracting the number of moles of bound thrombin from the number of moles of added inhibitor (test compound).
The Kass value is the hypothetical equilibrium constant for the reaction between thrombin and the test compound (I). [drawing 54]
(§2) Kass is calculated for a range of concentrations of test compounds and the mean value is reported in units of liter per mole.

factor Xa = molecular target: T1, factor Xa (Homo sapiens, UniProt P00742); assay: Serine protease selectivity, chromogenic substrate (Kass), factor Xa; assay type: biochemical; conditions: substrate N-Benzoyl-Ile-Glu-Gly-Arg-p-nitroanilide
T1 construct: Human factors X, Xa, IXa, XIa, and XIIa are purchased; purchased Enzyme Research Laboratories, South Bend, Ind
T1 sequence (P00742 235-488 limits assumed): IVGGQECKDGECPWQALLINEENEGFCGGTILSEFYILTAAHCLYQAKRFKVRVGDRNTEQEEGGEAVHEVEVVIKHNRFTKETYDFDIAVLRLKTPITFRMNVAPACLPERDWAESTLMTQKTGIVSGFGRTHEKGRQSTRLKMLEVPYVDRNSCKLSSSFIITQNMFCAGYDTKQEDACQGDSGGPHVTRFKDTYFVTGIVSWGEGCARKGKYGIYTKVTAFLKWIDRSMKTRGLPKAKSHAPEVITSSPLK
T1 sequence (P00742 41-179 partner limits assumed): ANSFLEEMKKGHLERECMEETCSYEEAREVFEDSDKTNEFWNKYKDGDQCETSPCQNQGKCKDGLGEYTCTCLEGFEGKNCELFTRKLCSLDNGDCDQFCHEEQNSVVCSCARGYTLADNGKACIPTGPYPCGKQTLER
Experimental: as §1, §2
(§3) By substantially following the procedures described above for human thrombin, and using other human blood coagulation system serine proteases and proteases of the fibrinolytic system with the appropriate chromogenic substrates, identified below, selectivity of the compounds of the present invention with respect to the coagulation factor serine proteases and with respect to the fibrinolytic system serine proteases are evaluated as well as their substantial lack of interference with serine proteases of the fibrinolytic system. Thrombin inhibitors preferably should spare fibrinolysis induced by urokinase, tissue plasminogen activator (t-PA) and streptokinase. This would be important to the therapeutic use of such agents as an adjunct to streptokinase, t-PA or urokinase thrombolytic therapy and to the use of such agents as an endogenous fibrinolysis-sparing (with respect to t-PA and urokinase) antithrombotic agent. In addition to the lack of interference with the amidase activity of the fibrinolytic proteases, such fibrinolytic system sparing can be studied by the use of human plasma clots and their lysis by the respective fibrinolytic plasminogen activators.
(§4) Human factors X, Xa, IXa, XIa, and XIIa are purchased from Enzyme Research Laboratories, South Bend, Ind.; human urokinase from Leo Pharmaceuticals, Denmark; and recombinant activated Protein C (aPC) is prepared at Eli Lilly and Co. substantially according to U.S. Pat. No. 4,981,952. Chromogenic substrates: N-Benzoyl-Ile-Glu-Gly-Arg-p-nitroanilide (for factor Xa); N-Cbz-D-Arg-Gly-Arg-p-nitroanilide (for factor IXa assay as the factor Xa substrate); Pyroglutamyl-Pro-Arg-p-nitroanilide (for Factor XIa and for aPC); H-D-Pro-Phe-Arg-p-nitroanilide (for factor XIIa); and Pyroglutamyl-Gly-Arg-p-nitroanilide (for urokinase); are purchased from KabiVitrum, Stockholm, Sweden, or from Midwest Biotech, Fishers, Ind. Bovine trypsin is purchased from Worthington Biochemicals, Freehold, N.J., and human plasma kallikrein from Kabi Vitrum, Stockholm, Sweden. Chromogenic substrate H-D-Pro-Phe-Arg-p-nitroanilide for plasma kallikrein is purchased from Kabi Vitrum, Stockholm, Sweden. N-Benzoyl-Phe-Val-Arg-p-nitroanilide, the substrate for human thrombin and for trypsin, is synthesized according to procedures described above for the compounds of the present invention, using known methods of peptide coupling from commercially available reactants or purchased from Midwest Biotech, Fishers, Ind.

Trypsin = molecular target: T2, Trypsin (Bos taurus, UniProt P00760); assay: Serine protease selectivity, chromogenic substrate (Kass), trypsin; assay type: biochemical, bovine; conditions: substrate N-Benzoyl-Phe-Val-Arg-p-nitroanilide
T2 construct: Bovine trypsin is purchased; purchased Worthington Biochemicals, Freehold, N.J
T2 sequence (P00760 24-246): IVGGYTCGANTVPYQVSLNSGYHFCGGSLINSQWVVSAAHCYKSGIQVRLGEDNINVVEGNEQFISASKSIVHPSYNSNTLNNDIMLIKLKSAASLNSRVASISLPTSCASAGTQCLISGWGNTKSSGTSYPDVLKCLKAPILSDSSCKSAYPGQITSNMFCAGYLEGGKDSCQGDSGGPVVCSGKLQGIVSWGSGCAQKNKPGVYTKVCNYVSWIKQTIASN
Experimental: as §1, §2, §3, §4

Plasmin = molecular target: T3, Plasmin (Homo sapiens, UniProt P00747); assay: Serine protease selectivity, chromogenic substrate (Kass), plasmin; assay type: biochemical; conditions: substrate H-D-Val-Leu-Lys-p-nitroanilide
T3 construct: Human plasmin is purchased; purchased Boehringer Mannheim, Indianapolis, Ind
T3 sequence (P00747 581-810 limits assumed): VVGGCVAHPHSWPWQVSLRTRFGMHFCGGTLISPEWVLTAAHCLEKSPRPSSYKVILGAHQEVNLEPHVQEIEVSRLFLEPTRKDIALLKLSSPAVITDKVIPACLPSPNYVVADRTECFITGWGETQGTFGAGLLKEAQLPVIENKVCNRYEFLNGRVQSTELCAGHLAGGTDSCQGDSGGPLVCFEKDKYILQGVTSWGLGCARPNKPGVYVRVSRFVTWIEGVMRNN
T3 sequence (P00747 97-580 partner limits assumed): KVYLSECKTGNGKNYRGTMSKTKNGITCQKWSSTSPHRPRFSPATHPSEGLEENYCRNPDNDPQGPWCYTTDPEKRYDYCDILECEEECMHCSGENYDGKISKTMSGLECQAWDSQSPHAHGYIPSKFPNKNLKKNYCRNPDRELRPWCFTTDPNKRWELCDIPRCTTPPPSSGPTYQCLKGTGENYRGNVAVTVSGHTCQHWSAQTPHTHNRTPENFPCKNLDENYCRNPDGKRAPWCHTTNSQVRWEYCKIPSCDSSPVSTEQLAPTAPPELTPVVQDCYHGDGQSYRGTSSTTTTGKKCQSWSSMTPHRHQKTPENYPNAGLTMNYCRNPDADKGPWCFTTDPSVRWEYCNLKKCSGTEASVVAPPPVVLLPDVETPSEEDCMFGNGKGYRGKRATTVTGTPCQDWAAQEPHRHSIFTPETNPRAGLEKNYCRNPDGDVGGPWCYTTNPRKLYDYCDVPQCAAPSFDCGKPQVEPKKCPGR
Experimental: as §1, §2, §3
(§5) Human plasmin is purchased from Boehringer Mannheim, Indianapolis, Ind.; nt-PA is purchased as single chain activity reference from American Diagnostica, Greenwich, Conn.; modified-t-PA6 (mt-PA6) is prepared at Eli Lilly and Company by procedure known in the art (See, Burck, et al., J. Biol. Chem., 265, […] (1990). Plasmin chromogenic substrate H-D-Val-Leu-Lys-p-nitroanilide and tissue plasminogen activator (t-PA) substrate H-D-Ile-Pro-Arg-p-nitroanilide are purchased from Kabi Vitrum, Stockholm, Sweden.

t-PA = molecular target: T4, t-PA (Homo sapiens, UniProt P00750); assay: Serine protease selectivity, chromogenic substrate (Kass), t-PA; assay type: biochemical; conditions: substrate H-D-Ile-Pro-Arg-p-nitroanilide
T4 construct: purchased American Diagnostica, Greenwich, Conn
T4 sequence (P00750 36-562): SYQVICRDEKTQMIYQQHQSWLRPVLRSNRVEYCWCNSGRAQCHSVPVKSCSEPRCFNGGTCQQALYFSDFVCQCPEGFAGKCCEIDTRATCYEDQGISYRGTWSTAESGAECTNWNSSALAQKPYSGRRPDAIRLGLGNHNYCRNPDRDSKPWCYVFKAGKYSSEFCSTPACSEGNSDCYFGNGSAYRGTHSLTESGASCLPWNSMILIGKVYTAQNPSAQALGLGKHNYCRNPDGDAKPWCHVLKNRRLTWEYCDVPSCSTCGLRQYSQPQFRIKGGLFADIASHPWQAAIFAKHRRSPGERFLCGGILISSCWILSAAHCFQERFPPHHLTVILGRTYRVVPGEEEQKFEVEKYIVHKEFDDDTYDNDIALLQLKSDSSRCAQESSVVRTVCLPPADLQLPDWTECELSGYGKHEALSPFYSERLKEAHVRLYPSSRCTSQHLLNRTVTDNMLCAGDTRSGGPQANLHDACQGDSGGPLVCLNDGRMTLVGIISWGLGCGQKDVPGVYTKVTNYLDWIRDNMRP
Experimental: as §1, §2, §3, §5

Human plasma [1] = assay: Human plasma anticoagulation, thrombin time (TT); assay type: biochemical; conditions: concentration required to double the thrombin time, linear extrapolation
Experimental: (§6) Dog plasma and rat plasma is obtained from conscious mixed-breed hounds (either sex, Hazelton-LRE, Kalamazoo, Mich., U.S.A.) or from anesthetized male Sprague-Dawley rats (Harlan Sprague-Dawley, Inc., Indianapolis, Ind., U.S.A.) by venipuncture into 3.8 percent citrate. Fibrinogen is prepared from in-date ACD human blood as the fraction I-2 according to previous procedures and specifications. Smith, Biochem. J., 185, 1-11 (1980); and Smith, et al., Biochemistry, 11, 2958-2967 (1972). Human fibrinogen is also purchased as 98 percent pure/plasmin free from American Diagnostica, Greenwich, Conn. Coagulation reagents ACTIN, Thromboplastin, and Human plasma are from Baxter Healthcare Corp., Dade Division, Miami, Fla. Bovine thrombin from Parke-Davis ([…], Mich.) is used for coagulation assays in plasma.
(§7) Coagulation assay procedures are as previously described. Smith, et al., Thrombosis Research, 50, 163-174 (1988). A CoAScreener coagulation instrument (American LABor, Inc.) is used for all coagulation assay measurements. The prothrombin time (PT) is measured by adding 0.05 mL saline and 0.05 mL Thromboplastin-C reagent to 0.05 mL test plasma. The activated partial thromboplastin time (APTT) is measured by incubation of 0.05 mL test plasma with 0.05 mL Actin reagent for 120 seconds followed by 0.05 mL CaCl2 (0.02M). The thrombin time (TT) is measured by adding 0.05 mL saline and 0.05 mL thrombin (10 NIH units/mL) to 0.05 mL test plasma. The compounds of formula I are added to human or animal plasma over a wide range of concentrations to determine prolongation effects on the APTT, PT, and TT assays. Linear extrapolations are performed to estimate the concentrations required to double the clotting time for each assay.

Human plasma [2] = assay: Human plasma anticoagulation, activated partial thromboplastin time (APTT); assay type: biochemical; conditions: concentration required to double the APTT, linear extrapolation
Experimental: as §6, §7

Human plasma [3] = assay: Human plasma anticoagulation, prothrombin time (PT); assay type: biochemical; conditions: concentration required to double the PT, linear extrapolation
Experimental: as §6, §7

SMILES | Enzyme Kass, Human Thrombin (Human Thrombin) [L/mol × 10^6] | Enzyme Kass, Xa (factor Xa) | Enzyme Kass, Trypsin (Trypsin) [L/mol × 10^6] | Enzyme Kass, Plasmin (Plasmin) [L/mol × 10^6] | Enzyme Kass, t-PA (t-PA) [L/mol × 10^6] | Enzyme Kass, Human Thrombin (Human Thrombin; HCl) [L/mol × 10^6] | Enzyme Kass, Xa (factor Xa; HCl) [L/mol × 10^6] | Enzyme Kass, Trypsin (Trypsin; HCl) [L/mol × 10^6] | Enzyme Kass, Plasmin (Plasmin; HCl) [L/mol × 10^6] | Enzyme Kass, t-PA (t-PA; HCl) [L/mol × 10^6] | 2x Clotting time, TT (Human plasma [1]) [ng/mL] | 2x Clotting time, APTT (Human plasma [2]) | 2x Clotting time, PT (Human plasma [3]) | 2x Clotting time, TT (Human plasma [1]; HCl) | 2x Clotting time, APTT (Human plasma [2]; HCl) | 2x Clotting time, PT (Human plasma [3]; HCl)
CC(=O)Nc1cccc(O[C@H]2C[C@@H](C(=O)N[C@H](C=O)CCCNC(=N)N)N(C(=O)[C@H]3CCCCN3)C2)c1.Cl.Cl (relative stereo) [Example 12, D-hPro-Pro(4-cis-(3-AcNH-phenoxy))-ArgH.2 HCl] | 6.1 | 1.2 L/mol × 10^6 | 56 | 1.1 | 0.015 | – | – | – | – | – | 210 | 1,300 ng/mL | 4,100 ng/mL | – | – | –
CC(=O)Nc1ccc(O[C@H]2C[C@@H](C(=O)N[C@H](C=O)CCCNC(=N)N)N(C(=O)[C@H]3CCCCN3)C2)cc1.Cl.Cl (relative stereo) [Example 10, D-hPro-Pro(4-cis-(4-AcNH-phenoxy))-ArgH.2 HCl] | 3.0 | 0.59 L/mol × 10^6 | 63 | 3.4 | 0.027 | – | – | – | – | – | 480 | 2,200 ng/mL | 10,000 ng/mL | – | – | –
Cl.Cl.N=C(N)NCCC[C@@H](C=O)NC(=O)[C@@H]1C[C@H](Oc2cccc(C(=O)O)c2)CN1C(=O)[C@H]1CCCCN1 (relative stereo) [Example 19, D-hPro-Pro(4-cis-(3-COOH-phenoxy))-ArgH.2 HCl] | 2.8 | 1.30 L/mol × 10^6 | 49.3 | 0.50 | 0.022 | – | – | – | – | – | 345 | 3,497 ng/mL | 8,822 ng/mL | – | – | –
Cl.Cl.N=C(N)NCCC[C@@H](C=O)NC(=O)[C@@H]1C[C@H](Oc2cccc(N)c2)CN1C(=O)[C@H]1CCCCN1 (relative stereo) [Example 13, D-hPro-Pro(4-cis-(3-NH2-phenoxy))-ArgH.2 HCl] | 2.1 | 0.58 L/mol × 10^6 | 22 | 0.65 | 0.033 | – | – | – | – | – | 490 | 2,900 ng/mL | 9,100 ng/mL | – | – | –
CCS(=O)(=O)N[C@H](C(=O)N1C[C@@H](Oc2ccccc2)C[C@H]1C(=O)N[C@H](C=O)CCCNC(=N)N)c1ccccc1.Cl (relative stereo) [Example 16, EtSO2 -L-Phg-Pro(4-cis-phenoxy)-ArgH.HCl] | 43 | 6.8 L/mol × 10^6 | 180 | 4.8 | 0.26 | – | – | – | – | – | 120 | 2,400 ng/mL | 4,900 ng/mL | – | – | –
Cl.Cl.N=C(N)NCCC[C@@H](C=O)NC(=O)[C@@H]1C[C@H](Oc2ccc(C(=O)O)cc2)CN1C(=O)[C@H]1CCCCN1 (relative stereo) [Example 18, D-hPro-Pro(4-cis-(4-COOH-phenoxy))-ArgH.2 HCl] | 4.5 | 0.58 L/mol × 10^6 | 52.2 | 0.37 | 0.013 | – | – | – | – | – | 248 | 5,969 ng/mL | 10,783 ng/mL | – | – | –

Now from value to compound, other results behind:

Enzyme Kass, Human Thrombin (Human Thrombin) [L/mol × 10^6] | Enzyme Kass, Xa (factor Xa) | Enzyme Kass, Trypsin (Trypsin) [L/mol × 10^6] | Enzyme Kass, Plasmin (Plasmin) [L/mol × 10^6] | Enzyme Kass, t-PA (t-PA) [L/mol × 10^6] | Enzyme Kass, Human Thrombin (Human Thrombin; HCl) [L/mol × 10^6] | Enzyme Kass, Xa (factor Xa; HCl) [L/mol × 10^6] | Enzyme Kass, Trypsin (Trypsin; HCl) [L/mol × 10^6] | Enzyme Kass, Plasmin (Plasmin; HCl) [L/mol × 10^6] | Enzyme Kass, t-PA (t-PA; HCl) [L/mol × 10^6] | SMILES | 2x Clotting time, TT (Human plasma [1]) [ng/mL] | 2x Clotting time, APTT (Human plasma [2]) | 2x Clotting time, PT (Human plasma [3]) | 2x Clotting time, TT (Human plasma [1]; HCl) | 2x Clotting time, APTT (Human plasma [2]; HCl) | 2x Clotting time, PT (Human plasma [3]; HCl)
957 | 4,37 L/mol × 10^6 | 312 | 28.2 | 2.07 | – | – | – | – | – | CCS(=O)(=O)N[C@H](Cc1ccccc1)C(=O)N1[C@H](C(=O)N[C@H](C=O)CCCNC(=N)N)C[C@@H]2CCCC[C@@H]21.Cl (relative stereo) [Example 23, EtSO2 -D-Phe-cis-Ohi-ArgH.HCl] | 19 | 312 ng/mL | 746 ng/mL | – | – | –
– | – | – | – | – | 3.1 | 0.03 | 3.6 | 0.20 | 0.001 | Cl.Cl.N=C(N)NCCCC(C=O)NC(=O)C1CC2CCCCC2N1C(=O)C1NCCC2CCCCC21 [Example 21, L-1-cis-Piq-cis-Ohi-ArgH.2 HCl] | – | – | – | 1,199 ng/mL | 16,234 ng/mL | 30,776 ng/mL
